{
  "source": "patent US6352958B1",
  "about": "“Cycloimido-substituted benzofused heterocyclic herbicides” (FMC Corporation, priority 1997, dated 2002)",
  "type_in_all_cases": "in vivo",
  "key": {"[1]": {"system": "soybean (Glycine max var. Winchester)", "assay": "Preemergence herbicidal activity, soybean", "details": "Rate of Application 0.3 Kg/Ha, examined after 12-17 days"}, "[2]": {"system": "wheat (Triticum aestivum var. Lew)", "assay": "Preemergence herbicidal activity, wheat", "details": "Rate of Application 0.3 Kg/Ha, examined after 12-17 days"}, "[3]": {"system": "field corn (Zea mays var. Pioneer 3732)", "assay": "Preemergence herbicidal activity, corn", "details": "Rate of Application 0.3 Kg/Ha, examined after 12-17 days"}, "[4]": {"system": "velvetleaf (Abutilon theophrasti)", "assay": "Preemergence herbicidal activity, velvetleaf", "details": "Rate of Application 0.3 Kg/Ha, examined after 12-17 days"}, "[5]": {"system": "morningglory (Ipomea lacunosa or Ipomea hederacea)", "assay": "Preemergence herbicidal activity, morningglory", "details": "Rate of Application 0.3 Kg/Ha, examined after 12-17 days"}, "[6]": {"system": "common chickweed (Stellaria media)", "assay": "Preemergence herbicidal activity, chickweed", "details": "Rate of Application 0.3 Kg/Ha, examined after 12-17 days"}, "[7]": {"system": "common cocklebur (Xanthium strumarium L.)", "assay": "Preemergence herbicidal activity, cocklebur", "details": "Rate of Application 0.3 Kg/Ha, examined after 12-17 days"}, "[8]": {"system": "blackgrass (Aloepecurus myosuroides)", "assay": "Preemergence herbicidal activity, blackgrass", "details": "Rate of Application 0.3 Kg/Ha, examined after 12-17 days"}, "[9]": {"system": "green foxtail (Setaria viridis)", "assay": "Preemergence herbicidal activity, green foxtail", "details": "Rate of Application 0.3 Kg/Ha, examined after 12-17 days"}, "[10]": {"system": "Johnsongrass (Sorghum halepense)", "assay": "Preemergence herbicidal activity, johnsongrass", "details": "Rate of Application 0.3 Kg/Ha, examined after 12-17 days"}, "[11]": {"system": "soybean (Glycine max var. Winchester)", "assay": "Postemergence herbicidal activity, soybean", "details": "rate of application 0.3 Kg/Ha, rated after 12-17 days"}, "[12]": {"system": "wheat (Triticum aestivum var. Lew)", "assay": "Postemergence herbicidal activity, wheat", "details": "rate of application 0.3 Kg/Ha, rated after 12-17 days"}, "[13]": {"system": "field corn (Zea mays var. Pioneer 3732)", "assay": "Postemergence herbicidal activity, corn", "details": "rate of application 0.3 Kg/Ha, rated after 12-17 days"}, "[14]": {"system": "velvetleaf (Abutilon theophrasti)", "assay": "Postemergence herbicidal activity, velvetleaf", "details": "rate of application 0.3 Kg/Ha, rated after 12-17 days"}, "[15]": {"system": "morningglory (Ipomea lacunosa or Ipomea hederacea)", "assay": "Postemergence herbicidal activity, morningglory", "details": "rate of application 0.3 Kg/Ha, rated after 12-17 days"}, "[16]": {"system": "common chickweed (Stellaria media)", "assay": "Postemergence herbicidal activity, chickweed", "details": "rate of application 0.3 Kg/Ha, rated after 12-17 days"}, "[17]": {"system": "common cocklebur (Xanthium strumarium L.)", "assay": "Postemergence herbicidal activity, cocklebur", "details": "rate of application 0.3 Kg/Ha, rated after 12-17 days"}, "[18]": {"system": "blackgrass (Aloepecurus myosuroides)", "assay": "Postemergence herbicidal activity, blackgrass", "details": "rate of application 0.3 Kg/Ha, rated after 12-17 days"}, "[19]": {"system": "green foxtail (Setaria viridis)", "assay": "Postemergence herbicidal activity, green foxtail", "details": "rate of application 0.3 Kg/Ha, rated after 12-17 days"}, "[20]": {"system": "Johnsongrass (Sorghum halepense)", "assay": "Postemergence herbicidal activity, johnsongrass", "details": "rate of application 0.3 Kg/Ha, rated after 12-17 days"}},
  "data": [
    {"smiles": "CCOC(=O)c1cc2c(-n3c(=O)cc(C(F)(F)F)n(C)c3=O)c(F)cc(Cl)c2[nH]1", "note": "[Compound 493]", "values": [
      {"measurement": "PREEMERGENCE HERBICIDAL ACTIVITY (% CONTROL) SOY", "setting": "[1]", "value": 80, "unit": "%"},
      {"measurement": "PREEMERGENCE HERBICIDAL ACTIVITY (% CONTROL) WHT", "setting": "[2]", "value": 70, "unit": "%"},
      {"measurement": "PREEMERGENCE HERBICIDAL ACTIVITY (% CONTROL) CRN", "setting": "[3]", "value": 90, "unit": "%"},
      {"measurement": "PREEMERGENCE HERBICIDAL ACTIVITY (% CONTROL) ABUTH", "setting": "[4]", "value": 100, "unit": "%"},
      {"measurement": "PREEMERGENCE HERBICIDAL ACTIVITY (% CONTROL) IPOSS", "setting": "[5]", "value": 100, "unit": "%"},
      {"measurement": "PREEMERGENCE HERBICIDAL ACTIVITY (% CONTROL) STEME", "setting": "[6]", "value": 100, "unit": "%"},
      {"measurement": "PREEMERGENCE HERBICIDAL ACTIVITY (% CONTROL) XANPE", "setting": "[7]", "value": 70, "unit": "%"},
      {"measurement": "PREEMERGENCE HERBICIDAL ACTIVITY (% CONTROL) ALOMY", "setting": "[8]", "value": 75, "unit": "%"},
      {"measurement": "PREEMERGENCE HERBICIDAL ACTIVITY (% CONTROL) SETVI", "setting": "[9]", "value": 100, "unit": "%"},
      {"measurement": "PREEMERGENCE HERBICIDAL ACTIVITY (% CONTROL) SORHA", "setting": "[10]", "value": 100, "unit": "%"},
      {"measurement": "Postemergence herbicidal activity (% control) SOY", "setting": "[11]", "value": 95, "unit": "%"},
      {"measurement": "Postemergence herbicidal activity (% control) WHT", "setting": "[12]", "value": 60, "unit": "%"},
      {"measurement": "Postemergence herbicidal activity (% control) CRN", "setting": "[13]", "value": 90, "unit": "%"},
      {"measurement": "Postemergence herbicidal activity (% control) ABUTH", "setting": "[14]", "value": 100, "unit": "%"},
      {"measurement": "Postemergence herbicidal activity (% control) IPOSS", "setting": "[15]", "value": 100, "unit": "%"},
      {"measurement": "Postemergence herbicidal activity (% control) STEME", "setting": "[16]", "value": 80, "unit": "%"},
      {"measurement": "Postemergence herbicidal activity (% control) XANPE", "setting": "[17]", "value": 100, "unit": "%"},
      {"measurement": "Postemergence herbicidal activity (% control) ALOMY", "setting": "[18]", "value": 65, "unit": "%"},
      {"measurement": "Postemergence herbicidal activity (% control) SETVI", "setting": "[19]", "value": 100, "unit": "%"},
      {"measurement": "Postemergence herbicidal activity (% control) SORHA", "setting": "[20]", "value": 100, "unit": "%"}
    ]},
    {"smiles": "Cn1c(C(F)(F)F)cc(=O)n(-c2c(F)cc(Cl)c3oc(C(C)(C)C)nc23)c1=O", "note": "[Compound 30]", "values": [
      {"measurement": "PREEMERGENCE HERBICIDAL ACTIVITY (% CONTROL) SOY", "setting": "[1]", "value": 100, "unit": "%"},
      {"measurement": "PREEMERGENCE HERBICIDAL ACTIVITY (% CONTROL) WHT", "setting": "[2]", "value": 100, "unit": "%"},
      {"measurement": "PREEMERGENCE HERBICIDAL ACTIVITY (% CONTROL) CRN", "setting": "[3]", "value": 95, "unit": "%"},
      {"measurement": "PREEMERGENCE HERBICIDAL ACTIVITY (% CONTROL) ABUTH", "setting": "[4]", "value": 100, "unit": "%"},
      {"measurement": "PREEMERGENCE HERBICIDAL ACTIVITY (% CONTROL) IPOSS", "setting": "[5]", "value": 100, "unit": "%"},
      {"measurement": "PREEMERGENCE HERBICIDAL ACTIVITY (% CONTROL) STEME", "setting": "[6]", "value": 100, "unit": "%"},
      {"measurement": "PREEMERGENCE HERBICIDAL ACTIVITY (% CONTROL) XANPE", "setting": "[7]", "value": 90, "unit": "%"},
      {"measurement": "PREEMERGENCE HERBICIDAL ACTIVITY (% CONTROL) ALOMY", "setting": "[8]", "value": 100, "unit": "%"},
      {"measurement": "PREEMERGENCE HERBICIDAL ACTIVITY (% CONTROL) SETVI", "setting": "[9]", "value": 100, "unit": "%"},
      {"measurement": "PREEMERGENCE HERBICIDAL ACTIVITY (% CONTROL) SORHA", "setting": "[10]", "value": 100, "unit": "%"},
      {"measurement": "Postemergence herbicidal activity (% control) SOY", "setting": "[11]", "value": 95, "unit": "%"},
      {"measurement": "Postemergence herbicidal activity (% control) WHT", "setting": "[12]", "value": 80, "unit": "%"},
      {"measurement": "Postemergence herbicidal activity (% control) CRN", "setting": "[13]", "value": 90, "unit": "%"},
      {"measurement": "Postemergence herbicidal activity (% control) ABUTH", "setting": "[14]", "value": 100, "unit": "%"},
      {"measurement": "Postemergence herbicidal activity (% control) IPOSS", "setting": "[15]", "value": 100, "unit": "%"},
      {"measurement": "Postemergence herbicidal activity (% control) STEME", "setting": "[16]", "value": 100, "unit": "%"},
      {"measurement": "Postemergence herbicidal activity (% control) XANPE", "setting": "[17]", "value": 100, "unit": "%"},
      {"measurement": "Postemergence herbicidal activity (% control) ALOMY", "setting": "[18]", "value": 90, "unit": "%"},
      {"measurement": "Postemergence herbicidal activity (% control) SETVI", "setting": "[19]", "value": 100, "unit": "%"},
      {"measurement": "Postemergence herbicidal activity (% control) SORHA", "setting": "[20]", "value": 100, "unit": "%"}
    ]},
    {"smiles": "CN(C)C(=O)c1cc2c(Cl)cc(F)c(-n3c(=O)cc(C(F)(F)F)n(C)c3=O)c2o1", "note": "[Compound 275]", "values": [
      {"measurement": "PREEMERGENCE HERBICIDAL ACTIVITY (% CONTROL) SOY", "setting": "[1]", "value": 100, "unit": "%"},
      {"measurement": "PREEMERGENCE HERBICIDAL ACTIVITY (% CONTROL) WHT", "setting": "[2]", "value": 80, "unit": "%"},
      {"measurement": "PREEMERGENCE HERBICIDAL ACTIVITY (% CONTROL) CRN", "setting": "[3]", "value": 100, "unit": "%"},
      {"measurement": "PREEMERGENCE HERBICIDAL ACTIVITY (% CONTROL) ABUTH", "setting": "[4]", "value": 100, "unit": "%"},
      {"measurement": "PREEMERGENCE HERBICIDAL ACTIVITY (% CONTROL) IPOSS", "setting": "[5]", "value": 100, "unit": "%"},
      {"measurement": "PREEMERGENCE HERBICIDAL ACTIVITY (% CONTROL) STEME", "setting": "[6]", "value": 100, "unit": "%"},
      {"measurement": "PREEMERGENCE HERBICIDAL ACTIVITY (% CONTROL) XANPE", "setting": "[7]", "value": 100, "unit": "%"},
      {"measurement": "PREEMERGENCE HERBICIDAL ACTIVITY (% CONTROL) ALOMY", "setting": "[8]", "value": 80, "unit": "%"},
      {"measurement": "PREEMERGENCE HERBICIDAL ACTIVITY (% CONTROL) SETVI", "setting": "[9]", "value": 100, "unit": "%"},
      {"measurement": "PREEMERGENCE HERBICIDAL ACTIVITY (% CONTROL) SORHA", "setting": "[10]", "value": 95, "unit": "%"},
      {"measurement": "Postemergence herbicidal activity (% control) SOY", "setting": "[11]", "value": 100, "unit": "%"},
      {"measurement": "Postemergence herbicidal activity (% control) WHT", "setting": "[12]", "value": 70, "unit": "%"},
      {"measurement": "Postemergence herbicidal activity (% control) CRN", "setting": "[13]", "value": 90, "unit": "%"},
      {"measurement": "Postemergence herbicidal activity (% control) ABUTH", "setting": "[14]", "value": 100, "unit": "%"},
      {"measurement": "Postemergence herbicidal activity (% control) IPOSS", "setting": "[15]", "value": 100, "unit": "%"},
      {"measurement": "Postemergence herbicidal activity (% control) STEME", "setting": "[16]", "value": 100, "unit": "%"},
      {"measurement": "Postemergence herbicidal activity (% control) XANPE", "setting": "[17]", "value": 100, "unit": "%"},
      {"measurement": "Postemergence herbicidal activity (% control) ALOMY", "setting": "[18]", "value": 95, "unit": "%"},
      {"measurement": "Postemergence herbicidal activity (% control) SETVI", "setting": "[19]", "value": 100, "unit": "%"},
      {"measurement": "Postemergence herbicidal activity (% control) SORHA", "setting": "[20]", "value": 100, "unit": "%"}
    ]}
  ]
}
